Data as given in patent US7939320B2, “Astaxanthine biosynthesis in eukaryotes” (Peter und Traudl Engelhorn-Stiftung zur Forderung der …, priority 2005, dated 2011).

Key:
[1] = tested on: H. pluvialis phytoene desaturase Leu504Arg mutants; test: Resistance to norflurazon of Leu504Arg phytoene desaturase mutants compared with wild type; assay type: cell-based, Haematococcus pluvialis; settings: mutants with leucine to arginine substitution at position 504 of PDS
Text: The amino acid substitution according to the invention from leucine to arginine at position 504 of the H. pluvialis PDS protein corresponds to the Leu437Arg substitution in Synechococcus PCC7942 (FIG. 2). For this purpose, the Leu codon “CTG” is replaced by the Arg codon “CGC” by directed mutagenesis. This mutation imparts, to the mutants, the highest known resistance factor to norflurazon. The resistance which has been conferred imparts, to the mutants according to the invention, a resistance to norflurazon which is up to 70-fold higher in comparison with the wild type. In accordance with the invention, norflurazon concentrations of […] are used as selection substance.
A portion of the phytoene desaturase 6.1 kilobases in size was isolated from a genomic DNA library of H. pluvialis and subcloned into the multiple cloning site (MCS) of the pBluescriptSK vector (stratagene) via the restriction cleavage sites XbaI and XhoI. A nucleotide substitution from CTG to CGC was carried out via directed mutagenesis with the primers PDS-Qmut-plu2 CCAAGCAGAAGTACCGCGCCTCCATGGAGGG (SEQ ID NO: 8)and PDS-Qmut-min2 CCCTCCATGGAGGCGCGGTACTTCTGCTTGG (SEQ ID NO: 9); the plasmid was named pPDS-Q2. This nucleotide substitution led to an amino acid substitution from leucine to arginine in codon 504 (FIG. 2), and confers to mutants a resistance to norflurazon.

H. pluvialis WT cells = test: Growth of H. pluvialis WT cells on OHA plates containing norflurazon; assay type: cell-based, Haematococcus pluvialis; settings: norflurazon 0.7 μM

## CNc1cnn(-c2cccc(C(F)(F)F)c2)c(=O)c1Cl [norflurazon]
[1]
  resistance to norflurazon, fold higher in comparison with the wild type: up to 70 fold
H. pluvialis WT cells
  growth of the WT cells: greatly inhibited
